Assay results published in patent US20230203081A1, “LINCOSAMIDE ANTIBIOTICS AND USES THEREOF” (President and Fellows of Harvard College, priority 2020, published 2023).
In brackets after ≈: the same amount, converted by molar mass.

Legend:
Assay type in all cases: cell-based
E. coli ΔTolC = test: microbe, parasite or virus in culture; details: Escherichia coli, E. coli ΔTolC
Method: (§1) Minimum inhibitory concentrations (MICs) were determined by broth microdilution method or agar dilution method following the Clinical and Laboratory Standards Institute guidelines. Standard bacterial strains were obtained from American Type Culture Collection (ATCC). Other bacterial strains were obtained from hospitals and commercial sources, so noted in Table 11. […] Specialized procedures were employed for streptococcal and anaerobic strains. All other bacterial strains were sub-cultured on blood agar plates (tryptic soy agar with 5% sheep blood, Hardy Diagnostics) and incubated overnight at 35° C. […] Suspensions were further diluted to obtain a final inoculum of 5×10^5 CFU/mL for broth microdilution experiments.

S. aureus cErmA = test: MIC (broth microdilution or agar dilution, CLSI); details: Staphylococcus aureus; S. aureus cErmA; read-out: MIC
Method: (§2) Minimum inhibitory concentrations (MICs) were determined by broth microdilution method or agar dilution method following the Clinical and Laboratory Standards Institute guidelines. Standard bacterial strains were obtained from American Type Culture Collection (ATCC). Other bacterial strains were obtained from hospitals and commercial sources, so noted in Table 11. Before the start of the MIC experiment, standard and test compound stock solutions were prepared in dimethyl sulfoxide (DMSO, Aldrich D2650) at a stock concentration of 5,120 μg/mL. The compound concentration range typically employed for each experiment was 128-0.06 μg/mL (2.5% final DMSO concentration). Clindamycin was used as a comparator in all experiments and each experiment was performed in triplicate. Specialized procedures were employed for streptococcal and anaerobic strains. All other bacterial strains were sub-cultured on blood agar plates (tryptic soy agar with 5% sheep blood, Hardy Diagnostics) and incubated overnight at 35° C. Organisms were suspended in cation-adjusted Mueller-Hinton broth (CaMHB, BD 212322) and optical density was adjusted to 0.5 McFarland standard. Suspensions were further diluted to obtain a final inoculum of 5×10^5 CFU/mL for broth microdilution experiments.

E. faecium Clinical VRE = test: MIC (broth microdilution or agar dilution, CLSI); details: Enterococcus faecium; E. faecium Clinical VRE; read-out: MIC
Method: as §2

E. coli LptD = test: MIC (broth microdilution or agar dilution, CLSI); details: Escherichia coli, E. coli LptD; read-out: MIC
Method: as §1

S. aureus ATCC 29213 = test: MIC (broth microdilution or agar dilution, CLSI); details: Staphylococcus aureus, ATCC29213, S. aureus ATCC 29213; read-out: MIC
Method: as §1

E. coli ATCC 25922 = test: MIC (broth microdilution or agar dilution, CLSI); details: Escherichia coli, ATCC25922; E. coli ATCC 25922; read-out: MIC
Method: as §1

S. pneumoniae ATCC 49619 = test: MIC (broth microdilution or agar dilution, CLSI); details: Streptococcus pneumoniae, ATCC49619, S. pneumoniae ATCC 49619; read-out: MIC
Method: as §1

E. faecalis ATCC 29212 = test: MIC (broth microdilution or agar dilution, CLSI); details: Enterococcus faecalis, ATCC29212, E. faecalis ATCC 29212; read-out: MIC
Method: as §1

S. pyogenes ATCC 19615 = test: MIC (broth microdilution or agar dilution, CLSI); details: Streptococcus pyogenes, ATCC19615, S. pyogenes ATCC 19615; read-out: MIC
Method: as §1

K. oxytoca Clinical = test: MIC (broth microdilution or agar dilution, CLSI); details: Klebsiella oxytoca; K. oxytoca Clinical; read-out: MIC
Method: as §1

Compound | MIC (E. coli ΔTolC) | MIC (S. aureus cErmA) | MIC (E. faecium Clinical VRE) | MIC (E. coli LptD) | MIC (S. aureus ATCC 29213) | MIC (E. coli ATCC 25922) | MIC (S. pneumoniae ATCC 49619) | MIC (E. faecalis ATCC 29212) | MIC (S. pyogenes ATCC 19615) | MIC (K. oxytoca Clinical)
CS[C@H]1O[C@H]([C@H](NC(=O)[C@H]2NC[C@@H]3C[C@H](CC(C)C)CCO[C@H]32)[C@H](C)Sc2ccc(CN3CCNCC3)cc2)[C@H](O)[C@H](O)[C@H]1O [FSA-09-05-076, (4S,5aS,8S,8aR)-4-Isobutyl-N-((1S,2S)-2-((4-(piperazin-1-ylmethyl)phenyl)thio)-1-((2R,3R,4S,5R,6R)-3,4,5-trihydroxy-6-(methylthio)tetrahydro-2H-pyran-2-yl)propyl)octahydro-2H-oxepino[2,3-c]pyrrole-8-carboxamide] | 8 µg/mL (≈ 12 µM) | 128 µg/mL (≈ 192 µM) | 16 µg/mL (≈ 24 µM) | 16 µg/mL (≈ 24 µM) | 8 µg/mL (≈ 12 µM) | 128 µg/mL (≈ 192 µM) | 1 µg/mL (≈ 1.5 µM) | 4 µg/mL (≈ 6 µM) | 0.25 µg/mL (≈ 0.375 µM) | 16 µg/mL (≈ 24 µM)
CS[C@H]1O[C@H]([C@H](NC(=O)[C@H]2NC[C@@H]3C[C@H](CC(C)C)CCO[C@H]32)[C@H](C)Sc2ccc(CN3CCCC3)cc2)[C@H](O)[C@H](O)[C@H]1O [FSA-09-05-078, (4S,5aS,8S,8aR)-4-Isobutyl-N-((1S,2S)-2-((4-(pyrrolidin-1-ylmethyl)phenyl)thio)-1-((2R,3R,4S,5R,6R)-3,4,5-trihydroxy-6-(methylthio)tetrahydro-2H-pyran-2-yl)propyl)octahydro-2H-oxepino[2,3-c]pyrrole-8-carboxamide] | 4 µg/mL (≈ 6.14 µM) | 4 µg/mL (≈ 6.14 µM) | 1 µg/mL (≈ 1.53 µM) | 2 µg/mL (≈ 3.07 µM) | 2 µg/mL (≈ 3.07 µM) | 16 µg/mL (≈ 24.5 µM) | 0.25 µg/mL (≈ 0.383 µM) | 1 µg/mL (≈ 1.53 µM) | 0.125 µg/mL (≈ 0.192 µM) | 2 µg/mL (≈ 3.07 µM)
CS[C@H]1O[C@H]([C@H](NC(=O)[C@H]2NC[C@@H]3C[C@H](CC(C)C)CCO[C@H]32)[C@@H](C)O)[C@H](O)[C@H](O)[C@H]1O [FSA-09-04-072, (4S,5aS,8S,8aR)-N-((1R,2R)-2-Hydroxy-1-((2R,3R,4S,5R,6R)-3,4,5-trihydroxy-6-(methylthio)tetrahydro-2H-pyran-2-yl)propyl)-4-isobutyloctahydro-2H-oxepino[2,3-c]pyrrole-8-carboxamide] | 1 µg/mL (≈ 2.1 µM) | 32 µg/mL (≈ 67.1 µM) | 0.5 µg/mL (≈ 1.05 µM) | 2 µg/mL (≈ 4.2 µM) | 1 µg/mL (≈ 2.1 µM) | 16 µg/mL (≈ 33.6 µM) | 0.5 µg/mL (≈ 1.05 µM) | 0.25 µg/mL (≈ 0.525 µM) | 0.5 µg/mL (≈ 1.05 µM) | 16 µg/mL (≈ 33.6 µM)
CNCc1ccc(S[C@@H](C)[C@@H](NC(=O)[C@H]2NC[C@@H]3C[C@H](CC(C)C)CCO[C@H]32)[C@H]2O[C@H](SC)[C@H](O)[C@@H](O)[C@H]2O)cc1 [FSA-09-05-079, (4S,5aS,8S,8aR)-4-Isobutyl-N-((1S,2S)-2-((4-((methylamino)methyl)phenyl)thio)-1-((2R,3R,4S,5R,6R)-3,4,5-trihydroxy-6-(methylthio)tetrahydro-2H-pyran-2-yl)propyl)octahydro-2H-oxepino[2,3-c]pyrrole-8-carboxamide] | 1 µg/mL (≈ 1.63 µM) | 8 µg/mL (≈ 13.1 µM) | 4 µg/mL (≈ 6.54 µM) | 1 µg/mL (≈ 1.63 µM) | 1 µg/mL (≈ 1.63 µM) | 16 µg/mL (≈ 26.1 µM) | 0.5 µg/mL (≈ 0.817 µM) | 0.5 µg/mL (≈ 0.817 µM) | 0.5 µg/mL (≈ 0.817 µM) | 16 µg/mL (≈ 26.1 µM)
CS[C@H]1O[C@H]([C@H](NC(=O)[C@H]2NC[C@@H]3C[C@H](CC(C)C)CCO[C@H]32)[C@H](C)Sc2ccc(CCN(C)C)cc2)[C@H](O)[C@H](O)[C@H]1O [FSA-09-04-087, (4S,5aS,8S,8aR)-N-((1S,2S)-2-((4-(2-(Dimethylamino)ethyl)phenyl)thio)-1-((2R,3R,4S,5R,6R)-3,4,5-trihydroxy-6-(methylthio)tetrahydro-2H-pyran-2-yl)propyl)-4-isobutyloctahydro-2H-oxepino[2,3-c]pyrrole-8-carboxamide] | 1 µg/mL (≈ 1.56 µM) | 8 µg/mL (≈ 12.5 µM) | 4 µg/mL (≈ 6.25 µM) | 1 µg/mL (≈ 1.56 µM) | 1 µg/mL (≈ 1.56 µM) | 16 µg/mL (≈ 25 µM) | 0.5 µg/mL (≈ 0.781 µM) | 0.5 µg/mL (≈ 0.781 µM) | 0.5 µg/mL (≈ 0.781 µM) | 16 µg/mL (≈ 25 µM)
